The assay deals with TNF-α mRNA in LN cells. The assay is described as follows: TNF-α mRNA by real-time PCR in LN cells of GA-immunized CD-1, BALB/cByJ, SJL/J mice (Example III). The assay is classed as cell-based, mouse. As to conditions: 6 hours. The procedure: On Day 0, mice were immunized with 250 μg GA (GMA, Mylan Pharmaceuticals, Inc.) and CFA. The GA solution (20 mg/mL) was diluted with Dulbecco's Phosphate-Buffered Saline to 5 mg/mL. The dosing formulation consisted of equal volumes of the diluted GA solution (5 mg/mL) and CFA solution, mixed until well-emulsified. Animals were weighed and allocated to groups. Animals were dosed by injection into four footpads. The injection volume per animal was 0.1 mL (about 10 μL into each front footpad, and 40 μL into each hind footpad).
Immunized animals were euthanized by cervical dislocation on Day 10 post-immunization. Lymph node cells were isolated from animals and treated with Myelin Basic Protein (MBP, a negative control), Concanavalin A (ConA, a positive control) or GA as shown in Table 16. Lymph nodes in the axillary and popliteal regions were removed aseptically in a purifier clean bench. […] The LN were then washed 3 times with −5 mL of RPMI medium, and isolated by pressing the LN with a syringe plunger. […] The cell suspension was centrifuged at about 200×g for 10 minutes at about 4° C. and re-suspended in ice cold enriched DCCM-1 medium. Cells were seeded in 96-well tissue culture plates.
LN cells isolated from GA-immunized animals were stimulated with GA (GMA, Mylan Pharmaceuticals, Inc.) at concentrations as indicated in Tables 16 and 17. A positive control was prepared by treating LN cells with 2.5 μg/mL concavalin A (ConA, a non-specific T cell stimulant). Myelin basic protein (MBP, 10 μg/mL) and enriched DCCM-1 medium served as negative controls. The cells from all groups each were stimulated with the same GA lot. Each reaction was set up in triplicate.
After incubation at about 37° C. in a humidified CO2 incubator for 6 hours, the cells were lysed for total RNA isolation. Total RNA was isolated from treated LN cells using SV 96 Total RNA Isolation System according to the manufacturer's protocol (Promega, Cat. #Z3500). Cells were washed once with Phosphate Buffered Saline (PBS) and lysed in RNA lysis buffer. The lysate was transferred to wells of the SV 96 binding plate. Samples were washed with RNA wash solution and treated with DNase. Total RNA was eluted with nuclease-free water from the binding plate.
After the reverse transcriptase reaction was completed, cDNA samples were used directly for real-time PCR to measure the response biomarker mRNA levels produced by the stimulated cells. […] All probes for target genes contained FAM dye, and probes for the internal control contained VIC®/MGB dye. Samples will be prepared and run in 96-well plates using a Real-Time PCR system (7500, Life Technologies). This system allows direct detection of PCR-product formation by measuring the increase in fluorescent emission continuously during the PCR reaction. A relative quantitation method was used to analyze changes in mouse IL-2, IL-4, IL-5, IL-10, IL-13, IFN-γ and TNF-α expression in GA-treated samples relative to the untreated control (enriched DCCM-1 treated) samples. The Real-Time PCR program was:
The levels of mouse cytokine amplicons (IL-2, IL-4, IL-5, IL-10, IL-13, mIFN-γ and TNF-α) were normalized to internal probe levels (GAPDH) from the same samples. The following equations were used to calculate the relative increase in response to GA stimulation compared to the control sample: ΔCT=CT_target−CT_reference ΔΔCT=−ΔCT_Treated−CT_VC
On the technique in general: Quantitative PCR measures a nucleic acid by following its amplification.

The mark [1] stands for this setting: Group 1C: CD-1, GA-immunized, stimulation 10 μg/mL.
The mark [2] stands for this setting: Group 2C: BALB/cByJ, GA-immunized, stimulation 10 μg/mL.
The mark [3] stands for this setting: Group 3C: SJL/J, GA-immunized, stimulation 10 μg/mL.

As for “Concanavalin A [ConA, reference compound]”, the “TNF-α mRNA Expression” value reads like this: (Group 1C: CD-1, GA-immunized, stimulation 2.5 μg/mL) 0.6 fold change vs control; (Group 2C: BALB/cByJ, GA-immunized, stimulation 2.5 μg/mL) 0.8 fold change vs control; (Group 3C: SJL/J, GA-immunized, stimulation 2.5 μg/mL) 0.7 fold change vs control.
As for “L-glutamic acid polymer with L-alanine, L-lysine and L-tyrosine, acetate (salt) [GA]”, the “TNF-α mRNA Expression” value reads like this: (Group 1C: CD-1, GA-immunized, stimulation 0.3 μg/mL) 1.0 fold change vs control; (Group 1C: CD-1, GA-immunized, stimulation 1 μg/mL) 1.1 fold change vs control; (Group 1C: CD-1, GA-immunized, stimulation 3 μg/mL) 1.4 fold change vs control; under setting [1], 1.1 fold change vs control; (Group 2C: BALB/cByJ, GA-immunized, stimulation 0.3 μg/mL) 0.1 fold change vs control; (Group 2C: BALB/cByJ, GA-immunized, stimulation 1 μg/mL) 1.0 fold change vs control. Further, the “TNF-α mRNA Expression” value (Group 2C: BALB/cByJ, GA-immunized, stimulation 3 μg/mL) was 0.8 fold change vs control; the “TNF-α mRNA Expression” value under setting [2] came out at 0.5 fold change vs control; the “TNF-α mRNA Expression” value (Group 3C: SJL/J, GA-immunized, stimulation 0.3 μg/mL) is given as 0.8 fold change vs control; the “TNF-α mRNA Expression” value (Group 3C: SJL/J, GA-immunized, stimulation 1 μg/mL) worked out at 0.9 fold change vs control; the “TNF-α mRNA Expression” value (Group 3C: SJL/J, GA-immunized, stimulation 3 μg/mL) was 0.9 fold change vs control; the “TNF-α mRNA Expression” value under setting [3] turned out to be 0.8 fold change vs control.

B1: MBP: myelin basic protein, a negative control (protein, UniProt P02686 1-304, looked up)
Myelin basic protein: MGNHAGKRELNAEKASTNSETNRGESEKKRNLGELSRTTSEDNEVFGEADANQNNGTSSQDTAVTDSKRTADPKNAWQDAHPADPGSRPHLIRLFSRDAPGREDNTFKDRPSESDELQTIQEDSAATSESLDVMASQKRPSQRHGSKYLATASTMDHARHGFLPRHRDTGILDSIGRFFGGDRGAPKRGSGKDSHHPARTAHYGSLPQKSHGRTQDENPVVHFFKNIVTPRTPPPSQGKGRGLSLSRFSWGAEGQRPGFGYGGRASDYKSAHKGFKGVDAQGTLSKIFKLGGRDSRSGSPMARR
In the case of B1, the “TNF-α mRNA Expression” value is, setting by setting: under setting [1], 0.8 fold change vs control; under setting [2], 0.8 fold change vs control; under setting [3], 0.3 fold change vs control.

For the origin of these results see patent publication US10344330B2, “Glatiramer acetate response biomarker mRNA potency assay” (Mylan Inc., priority 2013, dated 2019).
